Laboratory results published in patent US8642544B2, “N-terminus conformationally constrained GLP-1 receptor agonist compounds” (Amylin Pharmaceuticals, LLC, priority 2009, dated 2014).

How the values were obtained:
NIH/Swiss female mice = test: in vivo basal glucose lowering assay; settings: subcutaneous injection
Experimental: Some compounds shown in Table 1 below were analyzed in an in vivo basal glucose lowering assay using the following procedure: A subcutaneous injection of either 200 μl phosphate-buffered saline (PBS) vehicle or test article was given immediately following baseline glucose (t=0) to NIH/Swiss female mice. Tail blood glucose samples were measured at t=2 and 4 hours post dose using a OneTouch® Ultra® (LifeScan, Inc., a Johnson & Johnson Company, Milpitas, Calif.). Body weight was measured daily. Significant test sample effects were identified by ANOVA (p<0.05), followed by Dunnett's post test using GraphPad Prism version 4.00 for Windows (GraphPad Software, San Diego Calif.).

GLP-1 receptor = biological target: T1, GLP-1 receptor (Rattus norvegicus, UniProt P32301); test: in vitro functional assay at the GLP-1 receptor (cyclase, cAMP production in RIN m5f cell membranes); assay type: biochemical; settings: Cyclase GLP-1 Receptor EC50 (nM), Table 1; RIN m5f cell membranes, cAMP production (AlphaScreen)
T1 construct: 96-well assay plate containing RIN m5f cell membranes in an ATP/GTP mixture; endogenous in cells; host or cells: RIN m5f cell membranes
T1 sequence (P32301 22-463): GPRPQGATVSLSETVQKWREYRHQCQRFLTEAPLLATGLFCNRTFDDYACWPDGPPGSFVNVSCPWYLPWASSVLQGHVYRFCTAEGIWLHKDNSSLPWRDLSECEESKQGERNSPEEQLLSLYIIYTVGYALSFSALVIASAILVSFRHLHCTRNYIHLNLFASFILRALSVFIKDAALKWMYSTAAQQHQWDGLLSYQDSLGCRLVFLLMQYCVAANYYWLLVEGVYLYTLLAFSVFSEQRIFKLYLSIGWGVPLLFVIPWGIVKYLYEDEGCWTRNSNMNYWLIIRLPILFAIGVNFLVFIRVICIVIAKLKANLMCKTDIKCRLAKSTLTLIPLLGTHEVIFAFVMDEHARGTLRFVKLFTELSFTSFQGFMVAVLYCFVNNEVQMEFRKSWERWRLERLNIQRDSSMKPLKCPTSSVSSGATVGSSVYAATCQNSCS
Experimental: The compounds shown in Table 1 below were analyzed in an in vitro functional assay at the GLP-1 receptor. The assay was conducted as follows: Membrane fractions were prepared from confluent cultures of RIN m5f cells. Compounds were serially diluted with an assay buffer, and then added to a 96-well assay plate containing RIN m5f cell membranes in an ATP/GTP mixture. Cyclase activities were determined by measuring the production of cAMP induced through GLP-1 receptor activation. Quantification of cAMP production was achieved through a competitive chemiluminescence assay with a biotinylated-cAMP probe using Perkin Elmer Fusion™-Alpha Microplate Analyzer (AlphaScreen™ technology). The compound EC50 values were obtained through fitting the concentration-response curves to a four-parameter logistic equation within GraphPad PRISM® software.

[1] = Table 1, time in hours, tail blood glucose at t=2 and 4 hours post dose
[2] = Table 1, result in words (inactive / similar to GLP-1)

| Structure (SMILES) | In Vivo Glucose-Lowering Assay (NIH/Swiss female mice; [1]) | EC50 (GLP-1 receptor) | In Vivo Glucose-Lowering Assay (NIH/Swiss female mice; [2]) | In Vivo Glucose-Lowering Assay (NIH/Swiss female mice; Table 1, time printed in minutes) |
| --- | --- | --- | --- | --- |
| CC[C@H](C)[C@H](NC(=O)[C@H](Cc1ccccc1)NC(=O)[C@H](CC(C)C)NC(=O)[C@H](CCCNC(=N)N)NC(=O)[C@@H](NC(=O)[C@H](C)NC(=O)[C@H](CCC(=O)O)NC(=O)[C@H](CCC(=O)O)NC(=O)[C@H](CCC(=O)O)NC(=O)[C@H](CC(C)C)NC(=O)[C@H](CCC(N)=O)NC(=O)[C@H](CCCCN)NC(=O)[C@H](CO)NC(=O)[C@H](CC(C)C)NC(=O)[C@H](CC(=O)O)NC(=O)[C@H](CO)NC(=O)[C@@H](NC(=O)[C@H](Cc1ccccc1)NC(=O)[C@@H](NC(=O)CNC(=O)[C@@H]1CCCN1C(=O)CNC(=O)[C@@H](N)Cc1c[nH]cn1)[C@@H](C)O)[C@@H](C)O)C(C)C)C(=O)N[C@@H](CCC(=O)O)C(=O)N[C@@H](Cc1ccccc1)C(=O)N[C@@H](CC(C)C)C(=O)N[C@@H](CCCCN)C(=O)N[C@@H](CC(N)=O)C(N)=O [5B] | more than 4 hours | 0.53 nM | – | – |
| CC[C@H](C)[C@H](NC(=O)[C@H](Cc1ccccc1)NC(=O)[C@H](CC(C)C)NC(=O)[C@H](CCCNC(=N)N)NC(=O)[C@@H](NC(=O)[C@H](C)NC(=O)[C@H](CCC(=O)O)NC(=O)[C@H](CCC(=O)O)NC(=O)[C@H](CCC(=O)O)NC(=O)[C@H](CC(C)C)NC(=O)[C@H](CCC(N)=O)NC(=O)[C@H](CCCCN)NC(=O)[C@H](CO)NC(=O)[C@H](CC(C)C)NC(=O)[C@H](CC(=O)O)NC(=O)[C@H](CO)NC(=O)[C@@H](NC(=O)[C@H](Cc1ccccc1)NC(=O)[C@@H](NC(=O)CNC(=O)C(C)(C)NC(=O)[C@@H](C)NC(=O)[C@@H](N)Cc1c[nH]cn1)[C@@H](C)O)[C@@H](C)O)C(C)C)C(=O)N[C@@H](CCC(=O)O)C(=O)N[C@@H](Cc1ccccc1)C(=O)N[C@@H](CC(C)C)C(=O)N[C@@H](CCCCN)C(=O)N[C@@H](CC(N)=O)C(N)=O [9B] | more than 4 hours | 0.03 nM | – | – |
| CC[C@H](C)[C@H](NC(=O)[C@H](Cc1ccccc1)NC(=O)[C@H](CC(C)C)NC(=O)[C@H](CCCNC(=N)N)NC(=O)[C@@H](NC(=O)[C@H](C)NC(=O)[C@H](CCC(=O)O)NC(=O)[C@H](CCC(=O)O)NC(=O)[C@H](CCC(=O)O)NC(=O)[C@H](CC(C)C)NC(=O)[C@H](CCC(N)=O)NC(=O)[C@H](CCCCN)NC(=O)[C@H](CO)NC(=O)[C@H](CC(C)C)NC(=O)[C@H](CC(=O)O)NC(=O)[C@H](CO)NC(=O)[C@@H](NC(=O)[C@H](Cc1ccccc1)NC(=O)[C@@H](NC(=O)CNC(=O)[C@@H]1CSCN1C(=O)[C@@H](C)NC(=O)[C@@H](N)Cc1c[nH]cn1)[C@@H](C)O)[C@@H](C)O)C(C)C)C(=O)N[C@@H](CCC(=O)O)C(=O)N[C@@H](Cc1ccccc1)C(=O)N[C@@H](CC(C)C)C(=O)N[C@@H](CCCCN)C(=O)N[C@@H](CC(N)=O)C(N)=O [9D] | more than 4 hours | 0.01 nM | – | – |
| CC[C@H](C)[C@H](NC(=O)[C@H](Cc1ccccc1)NC(=O)[C@H](CC(C)C)NC(=O)[C@H](CCCNC(=N)N)NC(=O)[C@@H](NC(=O)[C@H](C)NC(=O)[C@H](CCC(=O)O)NC(=O)[C@H](CCC(=O)O)NC(=O)[C@H](CCC(=O)O)NC(=O)[C@H](CC(C)C)NC(=O)[C@H](CCC(N)=O)NC(=O)[C@H](CCCCN)NC(=O)[C@H](CO)NC(=O)[C@H](CC(C)C)NC(=O)[C@H](CC(=O)O)NC(=O)[C@H](CO)NC(=O)[C@@H](NC(=O)[C@H](Cc1ccccc1)NC(=O)[C@@H](NC(=O)CNC(=O)[C@@H]1CS(=O)(=O)CN1C(=O)[C@@H](C)NC(=O)[C@@H](N)Cc1c[nH]cn1)[C@@H](C)O)[C@@H](C)O)C(C)C)C(=O)N[C@@H](CCC(=O)O)C(=O)N[C@@H](Cc1ccccc1)C(=O)N[C@@H](CC(C)C)C(=O)N[C@@H](CCCCN)C(=O)N[C@@H](CC(N)=O)C(N)=O [9F] | more than 4 hours | 0.07 nM | – | – |
| CC[C@H](C)[C@H](NC(=O)[C@H](Cc1ccccc1)NC(=O)[C@H](CC(C)C)NC(=O)[C@H](CCCNC(=N)N)NC(=O)[C@@H](NC(=O)[C@H](C)NC(=O)[C@H](CCC(=O)O)NC(=O)[C@H](CCC(=O)O)NC(=O)[C@H](CCC(=O)O)NC(=O)[C@H](CC(C)C)NC(=O)[C@H](CCC(N)=O)NC(=O)[C@H](CCCCN)NC(=O)[C@H](CO)NC(=O)[C@H](CC(C)C)NC(=O)[C@H](CC(=O)O)NC(=O)[C@H](CO)NC(=O)[C@@H](NC(=O)[C@H](Cc1ccccc1)NC(=O)[C@@H](NC(=O)[C@@H]1CSC2[C@H](CC(=O)O)[C@H](NC(=O)[C@H](C)NC(=O)[C@@H](N)Cc3c[nH]cn3)C(=O)N21)[C@@H](C)O)[C@@H](C)O)C(C)C)C(=O)N[C@@H](CCC(=O)O)C(=O)N[C@@H](Cc1c[nH]c2ccccc12)C(=O)N[C@@H](CC(C)C)C(=O)N[C@@H](CCCCN)C(=O)N[C@@H](CCC(N)=O)C(=O)NCC(=O)NCC(=O)N1CCC[C@H]1C(=O)N[C@@H](CO)C(=O)N[C@@H](CCCCN)C(=O)N[C@@H](CCC(=O)O)C(=O)N[C@H](C(=O)N[C@H](C(=O)N[C@@H](CO)C(=O)O)[C@@H](C)CC)[C@@H](C)CC (stereo partly shown) [16A] | – | 0.52 nM | inactive | – |
| CC[C@H](C)[C@H](NC(=O)[C@H](Cc1ccccc1)NC(=O)[C@H](CC(C)C)NC(=O)[C@H](CCCNC(=N)N)NC(=O)[C@@H](NC(=O)[C@H](C)NC(=O)[C@H](CCC(=O)O)NC(=O)[C@H](CCC(=O)O)NC(=O)[C@H](CCC(=O)O)NC(=O)[C@H](CC(C)C)NC(=O)[C@H](CCC(N)=O)NC(=O)[C@H](CCCCN)NC(=O)[C@H](CO)NC(=O)[C@H](CC(C)C)NC(=O)[C@H](CC(=O)O)NC(=O)[C@H](CO)NC(=O)[C@@H](NC(=O)[C@H](Cc1ccccc1)NC(=O)[C@@H](NC(=O)[C@@H]1CSC2C[C@@H](C(=O)O)[C@H](NC(=O)[C@H](C)NC(=O)[C@@H](N)Cc3c[nH]cn3)C(=O)N21)[C@@H](C)O)[C@@H](C)O)C(C)C)C(=O)N[C@@H](CCC(=O)O)C(=O)N[C@@H](Cc1c[nH]c2ccccc12)C(=O)N[C@@H](CC(C)C)C(=O)N[C@@H](CCCCN)C(=O)N[C@@H](CCC(N)=O)C(=O)NCC(=O)NCC(=O)N1CCC[C@H]1C(=O)N[C@@H](CO)C(=O)N[C@@H](CCCCN)C(=O)N[C@@H](CCC(=O)O)C(=O)N[C@H](C(=O)N[C@H](C(=O)N[C@@H](CO)C(=O)O)[C@@H](C)CC)[C@@H](C)CC (stereo partly shown) [16C] | – | 1.1 nM | inactive | – |
| CC[C@H](C)[C@H](NC(=O)[C@H](Cc1ccccc1)NC(=O)[C@H](CC(C)C)NC(=O)[C@H](CCCNC(=N)N)NC(=O)[C@@H](NC(=O)[C@H](C)NC(=O)[C@H](CCC(=O)O)NC(=O)[C@H](CCC(=O)O)NC(=O)[C@H](CCC(=O)O)NC(=O)[C@H](CC(C)C)NC(=O)[C@H](CCC(N)=O)NC(=O)[C@H](CCCCN)NC(=O)[C@H](CO)NC(=O)[C@H](CC(C)C)NC(=O)[C@H](CC(=O)O)NC(=O)[C@H](CO)NC(=O)[C@@H](NC(=O)[C@H](Cc1ccccc1)NC(=O)[C@@H](NC(=O)CN1C[C@H](CC(=O)O)[C@H](NC(=O)[C@H](C)NC(=O)[C@@H](N)Cc2c[nH]cn2)C1=O)[C@@H](C)O)[C@@H](C)O)C(C)C)C(=O)N[C@@H](CCC(=O)O)C(=O)N[C@@H](Cc1c[nH]c2ccccc12)C(=O)N[C@@H](CC(C)C)C(=O)N[C@@H](CCCCN)C(=O)N[C@@H](CCC(N)=O)C(=O)NCC(=O)NCC(=O)N1CCC[C@H]1C(=O)N[C@@H](CO)C(=O)N[C@@H](CCCCN)C(=O)N[C@@H](CCC(=O)O)C(=O)N[C@H](C(=O)N[C@H](C(=O)N[C@@H](CO)C(=O)O)[C@@H](C)CC)[C@@H](C)CC [16D] | – | 1 nM | inactive | – |
| CC[C@H](C)[C@H](NC(=O)[C@H](Cc1ccccc1)NC(=O)[C@H](CC(C)C)NC(=O)[C@H](CCCNC(=N)N)NC(=O)[C@@H](NC(=O)[C@H](C)NC(=O)[C@H](CCC(=O)O)NC(=O)[C@H](CCC(=O)O)NC(=O)[C@H](CCC(=O)O)NC(=O)[C@H](CC(C)C)NC(=O)[C@H](CCC(N)=O)NC(=O)[C@H](CCCCN)NC(=O)[C@H](CO)NC(=O)[C@H](CC(C)C)NC(=O)[C@H](CC(=O)O)NC(=O)[C@H](CO)NC(=O)[C@@H](NC(=O)[C@H](Cc1ccccc1)NC(=O)[C@@H](NC(=O)[C@H](C)N1CC[C@@H](C(=O)O)[C@H](NC(=O)[C@H](C)NC(=O)[C@@H](N)Cc2c[nH]cn2)C1=O)[C@@H](C)O)[C@@H](C)O)C(C)C)C(=O)N[C@@H](CCC(=O)O)C(=O)N[C@@H](Cc1c[nH]c2ccccc12)C(=O)N[C@@H](CC(C)C)C(=O)N[C@@H](CCCCN)C(=O)N[C@@H](CCC(N)=O)C(=O)NCC(=O)NCC(=O)N1CCC[C@H]1C(=O)N[C@@H](CO)C(=O)N[C@@H](CCCCN)C(=O)N[C@@H](CCC(=O)O)C(=O)N[C@H](C(=O)N[C@H](C(=O)N[C@@H](CO)C(=O)O)[C@@H](C)CC)[C@@H](C)CC [16F] | – | 0.61 nM | – | about 30 minutes |
